Assay results as given in US20120171660A1, “METHOD FOR SCREENING AND PURIFYING ENTEROVIRUS, METHOD FOR MASS-PRODUCING ENTEROVIRUS, AND METHOD FOR MANUFACTURING ENTEROVIRUS VACCINE” (priority 2011, published 2012).

Assays:
EV71 [1] = assay: ELISA, biotin-labeled monosaccharide-PAA binding to EV71 captured on anti-EV71 antibody plate; set-up: species or system Enterovirus 71; settings: OD450; for binding of EV71 to monosaccharide (FIG. 1A): 10^6 PFU of EV71, biotin-labeled monosaccharide-PAA, compared to control without viruses or 10^6 PFU Dengue viruses; for binding activity between EV71 and monosaccharide versus amount of EV71 (FIG. 1B): 10 fold serial dilution of EV71 from 10^6 PFU to 10^2 PFU
Description: Enzyme-linked immunosorbent assay (ELISA) was used to detect the binding activities between EV71 and monosaccharides in the present embodiment. First, EV71 was added into a 96-well plate (Genesis, Taiwan) and bound to anti-EV71 antibody coated on the 96-well plate. Then, biotin-labeled monosaccharide polymers, such as glucose-PAA (polyacrylamide), mannose-PAA, galactose-PAA, N-acetyl-galactosamine-PAA (GalNAc-PAA), and N-acetyl-glucosamine-PAA (GlcNAc-PAA) were added into the 96-well plate, and reacted with EV71 at room temperature.

EV71 [2] = assay: ELISA, EV71 binding to monosaccharide-PAA coated plate; set-up: species or system Enterovirus 71; settings: OD450; for specific binding to EV71 (FIG. 1D): 10^6 PFU EV71, plate coated with monosaccharide-PAA, versus control without EV71
Description: ELISA was also performed to detect the binding activities between EV71 and monosaccharides in the present embodiment, and the process of ELISA of the present embodiment is similar to that of Embodiment 1.
(§1) In addition, specific bindings between different enteroviruses and monosaccharides were also detected. First, 10^6 PFU of enteroviruses, EV71, Coxsackievirus A16 (CA16), Coxsackievirus B3 (Cox B3, CB3), and Coxsackievirus B2 (Cox B2, CB2), were added in to a 96-well plate coated with glucose-PAA and galactose-PAA.

[3] = biological target: EV71 binding to galectin-1 (Homo sapiens, UniProt P09382); assay: ELISA, competition of monosaccharides with EV71 binding to galectin-1; set-up: species or system Enterovirus 71; settings: EV71 incubated with the sugar at different concentrations at 4° C. for 2 hours; galectin-1 coated plate
Description: ELISA was used to detect the competition between monosaccharides and EV71 or lectins. First, EV71 was incubated in a medium supplemented with galactose, glucose, N-acetyl galactosamines, sucrose, or mannose with different concentration (conc.) at 4° C. for 2 hours. […] It is because the monosaccharides bound on the EV71 may first bind to lectins, so the binding between lectins and EV71 may further be inhibited.

EV71 on SK-N-SH cells = assay: Plaque assay, EV71 replication on SK-N-SH cells with monosaccharides; assay type: cell-based, Enterovirus 71; settings: EV71 incubated with 0.625 M, 0.125M, 0.25M sugar, 72 hours; for production of EV71 on SK-N-SH cells, virus titer (FIG. 4A): 1 hour at 37° C., no wash; for production of EV71 on SK-N-SH cells, absorption stage (FIG. 4B): unbound viruses washed away by PBS after 1 hour
Description: Plaque assay was used to understand the relation between the monosaccharides and the replication of EV71 in the present embodiment.
Host cells, SK-N-SH cells (2×10^5 cells/well), were seeded in a 24-well plate, and incubated for 16-18 hours to form a monolayer cell. SK-N-SH cells were infected with EV71, which was incubated with different concentrations of glucose, galactose or N-acetylgalactosamine (0.625 M, 0.125M, and 0.25M). After 1 hour incubation at 37° C., DMEM with 1.6% methylcellulose and 2% FBS was added to incubate at 37° C. for 72 hours.
First, SK-N-SH cells were infected with EV71, which were incubated with different concentrations of glucose, galactose or N-acetylgalactosamine (0.625 M, 0.125M, and 0.25M). After 1 hour incubation at 37° C., unbound viruses were washed away by PBS, DMEM with 1.6% methylcellulose and 2% FBS was added to incubate at 37° C. for 72 hours.
In addition, SK-N-SH cells were infected with EV71 in a glucose-containing medium. After 1 hour incubation at 37° C., viruses, which were unbound on the 24-well plate were washed away with PBS. Then, the infected host cells were incubated in a medium containing 0.25M glucose or galactose (supplemented with 1.6% methylcellulose and 2% FBS) at 37° C. for 72 hours.

[4] = test system: Coxsackievirus A16 (CA16); assay: ELISA, CA16 binding to monosaccharide-PAA coated plate; settings: 10^6 PFU; plate coated with glucose-PAA or galactose-PAA; OD450
Description: as §1

[5] = test system: Coxsackievirus B3 (Cox B3, CB3); assay: ELISA, CB3 binding to monosaccharide-PAA coated plate; settings: 10^6 PFU; plate coated with glucose-PAA or galactose-PAA; OD450
Description: as §1

[6] = test system: Coxsackievirus B2 (Cox B2, CB2); assay: ELISA, CB2 binding to monosaccharide-PAA coated plate; settings: 10^6 PFU; plate coated with glucose-PAA or galactose-PAA; OD450
Description: as §1

EV71 [7] = assay: ELISA, EV71 binding to galectin-1 coated plate; set-up: species or system Enterovirus 71
Description: Except the aforementioned lectins, the binding activity between EV71 and mammalian lectin such as galectin-1 was also detected in the present embodiment. First, a different amount of EV71 (10 fold serial dilution from 10^6 PFU to 10^4 PFU) was incubated in a 96-well plate coated with galectin-1.
It means that the monosaccharides such as glucose may first bind to EV71 during the formation of EV71 viral particles, and the monosaccharides bound on EV71 may further participate in the binding between EV71 and galactin-1.

CA16 = assay: ELISA, CA16 binding to galectin-1 coated plate; set-up: species or system Coxsackievirus A16; settings: 10^6 PFU of virus, OD450
influenza virus (Flu) = assay: ELISA, influenza virus binding to galectin-1 coated plate; settings: 10^6 PFU of virus, OD450
dengue virus (DV) = assay: ELISA, dengue virus binding to galectin-1 coated plate; settings: 10^6 PFU of virus, OD450
Description: In addition, 106 PFU of different viruses including EV71, CA16, influenza virus (Flu) or dengue virus (DV) were added into a 96-well plate coated with galactin-1. Then, anti-EV71 antibody and HRP-conjugated goat anti-mouse IgG antibody were sequentially added into the 96-well plate.

EV71 binding to galectin-1, sequence (P09382 2-135 limits assumed): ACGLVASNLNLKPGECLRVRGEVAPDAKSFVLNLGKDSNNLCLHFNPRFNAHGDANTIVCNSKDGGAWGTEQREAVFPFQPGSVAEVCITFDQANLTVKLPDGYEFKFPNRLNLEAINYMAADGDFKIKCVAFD

Compound | binding of EV71 to monosaccharide (FIG. 1A) (EV71 [1]) | binding activity between EV71 and monosaccharide versus amount of EV71 (FIG. 1B) (EV71 [1]) | specific binding to EV71 (FIG. 1D) (EV71 [2]) | effect on binding between EV71 and lectins (galectin-1) by competition (FIG. 3) [3] | production of EV71 on SK-N-SH cells, virus titer (FIG. 4A) (EV71 on SK-N-SH cells) | production of EV71 on SK-N-SH cells, absorption stage (FIG. 4B) (EV71 on SK-N-SH cells) | binding activity to EV71 (FIGS. 1E, 1F) (EV71 [2]; 10^6 PFU, plate coated with glucose-PAA or galactose-PAA) | specific binding to CA16 (FIGS. 1E, 1F) [4] | binding activity to CB3 (FIGS. 1E, 1F) [5] | binding activity to CB2 (FIGS. 1E, 1F) [6] | binding to galectin-1 of EV71 incubated in sugar-free medium (FIG. 2E) (EV71 [7]; 10^6 PFU EV71 incubated in glucose-free medium) | binding of galectin-1 to EV71 (FIG. 2D) (EV71 [7]; 10^6 PFU of virus, galectin-1 coated plate, OD450) | binding of EV71 to galectin-1 (FIG. 2C) (EV71 [7]; EV71 10 fold serial dilution from 10^6 PFU to 10^4 PFU, bound amount increases with EV71 added) | binding of galectin-1 to CA16 (FIG. 2D) (CA16) | binding of galectin-1 to influenza virus (FIG. 2D) (influenza virus (Flu)) | binding of galectin-1 to dengue virus (FIG. 2D) (dengue virus (DV))
CC(=O)N[C@H]1C(O)O[C@H](CO)[C@H](O)[C@@H]1O (some centres unmarked) [N-acetyl-galactosamine] | can bind | enhanced as the amount of EV71 was increased | can specifically bind | partially inhibited | enhance the production of EV71 | enhance the production of EV71 |  |  |  |  |  |  |  |  |  | 
CC(=O)N[C@H]1C(O)O[C@H](CO)[C@@H](O)[C@@H]1O (some centres unmarked) [N-acetyl-glucosamine] |  |  | can specifically bind |  |  |  |  |  |  |  |  |  |  |  |  | 
O=C[C@H](O)[C@@H](O)[C@@H](O)[C@H](O)CO [galactose] | can bind | enhanced as the amount of EV71 was increased | can specifically bind | partially inhibited | enhance the production of EV71 | enhance the production of EV71 | high binding activity | can specifically bind | do not show any binding activity | do not show any binding activity |  |  |  |  |  | 
galactin-1: mammalian lectin such as galectin-1, coated on 96-well plate |  |  |  |  |  |  |  |  |  |  | cannot bind | specifically binds | binds | specifically binds | does not bind | does not bind
